# According to patent publication US6638531B1, “Antimicrobial peptides” (priority 1998, dated 2003):
# Marks after values point to notes of the source that are not given here. Where no end group is shown, it is not given here.
# What was measured:
# [1] = test system: Fusobacterium nucleatum (ATCC 10953); assay: Antibacterial activity against monocultures in vitro (viability counts); format: cell-based; conditions: 0.5 h, 100 μg/ml
# Procedure: (§1) Monocultures of the bacteria Streptococcus mutans (R9), Strentococcus sanguis (SB 179), Streptococcus salivarius (SS 196), Actinomyces naeslundii (WVU 627), Fusobacterium nucleatum (ATCC 10953), Prevotella intermedia ([…]) and Veillonella parvula (ATCC 17745) were cultured to a late log phase in BHI (Difco), washed three times in 10 mM potassium phosphate buffer (PPB) and diluted to a suspension of 10^6 CFU/ml. […] The control treatment was performed in 10 mM without peptide.
# [2] = test system: Streptococcus mutans (R9); assay: as above; format: cell-based; conditions: 0.5 h, 100 μg/ml
# Procedure: as §1
# [3] = test system: Streptococcus salivarius (SS 196); assay: as above; format: cell-based; conditions: 0.5 h, 100 μg/ml
# Procedure: as §1
# [4] = test system: Strentococcus sanguis (SB 179); assay: as above; format: cell-based; conditions: Streptococcus sanguis, 0.5 h, 100 μg/ml
# Procedure: as §1
# [5] = test system: Veillonella parvula (ATCC 17745); assay: as above; format: cell-based; conditions: 0.5 h, 100 μg/ml
# Procedure: as §1
# [6] = test system: Actinomyces naeslundii (WVU 627); assay: as above; format: cell-based; conditions: 0.5 h, 100 μg/ml
# Procedure: as §1
# [7] = test system: Streptococcus mutans; assay: Inhibition of lactic acid production; format: cell-based; conditions: S. mutans; 1 hour in 10 mM PPB with glucose
# Procedure: (§2) All peptides according to the invention were tested for their capacity to inhibit the lactic acid production of the bacteria Streptococcus sanguis, Streptococcus mutans, Streptococcus salivarius and Lactobacillus rhamnosus. The formation of lactic acid is a measure for the metabolic activity. For this purpose cultures of bacteria cells were incubated for 1 hour in 10 mM PPB with 0.5 glucose and different concentrations of the peptides. The formation of lactic acid was monitored by means of spectrophotometry.
# [8] = test system: Streptococcus sanguis; assay: Inhibition of lactic acid production; format: cell-based; conditions: S. sanguis; 1 hour in 10 mM PPB with glucose
# Procedure: as §2
# [9] = test system: Streptococcus salivarius; assay: Inhibition of lactic acid production; format: cell-based; conditions: S. salivarius; 1 hour in 10 mM PPB with glucose
# Procedure: as §2
# [10] = test system: Lactobacillus rhamnosus; assay: Inhibition of lactic acid production; format: cell-based; conditions: L. rhamnosus; 1 hour in 10 mM PPB with glucose
# Procedure: as §2
# [11] = test system: Torulopsis glabrata; assay: Growth inhibition on agar with spotted peptide; format: cell-based; design: key: “+” designates full growth inhibition; “+/−” designates partial inhibition; “−” signifies no inhibition; conditions: T. glabrata on agar, 10 μg peptide spotted
# Procedure: (§3) The growth of the yeast Candida albicans, Torulopsis glabrata and meticillin-resistant Staphylococcus aureus (MRSA) was tested by growing them on agar on which 10 μg of each of the peptides according to the invention was spotted. […] “+” designates full growth inhibition, “+/−” designates partial inhibition and “−” signifies no inhibition.
# [12] = test system: Candida albicans; assay: Growth inhibition on agar with spotted peptide; format: cell-based; design: key: “+” designates full growth inhibition; “+/−” designates partial inhibition; “−” signifies no inhibition; conditions: C. albicans on agar, 10 μg peptide spotted
# Procedure: as §3
# [13] = test system: meticillin-resistant Staphylococcus aureus (MRSA); assay: Growth inhibition on agar with spotted peptide; format: cell-based; design: key: “+” designates full growth inhibition; “+/−” designates partial inhibition; “−” signifies no inhibition; conditions: 10 μg peptide spotted
# Procedure: as §3
# [14] = test system: Candida glabrata; assay: microbe, parasite or virus in culture; conditions: for IC50 values (50% of the inoculum is killed): pH 7
# Procedure: (§4) 5*10^6 cells of Candida pseudotropicalis, Candida albicans 10231, Cryptococcus neoformans, Candida krusei, Candida parapsilosis, Candida glabrata and Candida albicans 32354 and an ergosterol-deficient mutant thereof were incubated for one and a half hours at 37° C. in the presence of a dilution series of a peptide according to the invention or amphotericin B in 1 mM potassium phosphate buffer, pH 7.0. The viability was determined by plating out. Used as positive control was synthetic PGLa (“Protein beginning with Glycine and ending with Leucin-amide”, with the amino acid sequence […]-amide).
# [15] = test system: Candida pseudotropicalis; assay: microbe, parasite or virus in culture; conditions: for IC50 values (50% of the inoculum is killed): pH 7
# Procedure: as §4
# [16] = test system: Candida albicans 32354; assay: microbe, parasite or virus in culture
# Procedure: as §4
# [17] = test system: Candida albicans 10231; assay: microbe, parasite or virus in culture; conditions: for IC50 values (50% of the inoculum is killed): 10231, pH 7
# Procedure: as §4
# [18] = test system: Candida parapsilosis; assay: microbe, parasite or virus in culture; conditions: for IC50 values (50% of the inoculum is killed): pH 7
# Procedure: as §4
# [19] = test system: Candida krusei; assay: microbe, parasite or virus in culture; conditions: for IC50 values (50% of the inoculum is killed): pH 7
# Procedure: as §4
# [20] = test system: Cryptococcus neoformans; assay: microbe, parasite or virus in culture; conditions: for IC50 values (50% of the inoculum is killed): pH 7
# Procedure: as §4
# [21] = test system: Candida albicans 32354, ergosterol-deficient mutant; assay: Killing of yeasts; format: cell-based; conditions: pH 7, read-out: IC50 values (50% of the inoculum is killed)
# Procedure: as §4
# [22] = test system: Prevotella intermedia (T588); assay: Antibacterial activity against monocultures in vitro (viability counts); format: cell-based; conditions: 0.5 h, 100 μg/ml
# Procedure: as §1
# [23] = test system: bacteria from cultured plaque; assay: Antimicrobial activity on oral bacteria; format: cell-based; conditions: 0.5 h, 100 μg/ml
# Excerpt: (§5) In order to determine whether the peptides according to the invention are also active against bacteria such as are encountered in the mouth, bacteria were collected from saliva and plaque. Saliva was shaken on a vortex mixer and centrifuged.
# [24] = test system: bacteria collected from plaque; assay: Antimicrobial activity on oral bacteria; format: cell-based; conditions: 0.5 h, 100 μg/ml
# Excerpt: as §5
# [25] = test system: bacteria from disrupted plaque; assay: Antimicrobial activity on oral bacteria; format: cell-based; conditions: 0.5 h, 100 μg/ml
# Excerpt: as §5
# [26] = test system: bacteria collected from saliva; assay: Antimicrobial activity on oral bacteria; format: cell-based; conditions: 0.5 h, 100 μg/ml
# Excerpt: as §5
# [27] = test system: Yersinia enterocolitica (PYv+); assay: Killing of Yersinia by peptide 10 (CFU over time); format: cell-based; conditions: 50 μg/ml, CFU at 0, 1, 2 and 3 hours (FIG. 3B)
# Procedure: (§6) Peptide 10 was added in a concentration of 50 μg/ml to a culture with 10^4 Salmonella typhimurium bacteria. For control purposes a culture to which nothing was added was included as blank. The number of CFU was determined at the points in time 0, 1, 2 and 3 hours. The same was done with Yersinia enterocolitica (PYv+). […] Particular peptides are also found to have a killing effect on micro-organisms which are resistant to antimicrobial agents used at present.
# [28] = test system: Salmonella typhimurium; assay: Killing of Salmonella by peptide 10 (CFU over time); format: cell-based; conditions: 50 μg/ml, culture with 10^4 Salmonella typhimurium, CFU at 0, 1, 2 and 3 hours (FIG. 3A)
# Procedure: as §6
Compound,% reduction in viability counts [1],% reduction in viability counts [2],% reduction in viability counts [3],% reduction in viability counts [4],% reduction in viability counts [5],% reduction in viability counts [6],inhibition of lactic acid production [7],inhibition of lactic acid production [8],inhibition of lactic acid production [9],inhibition of lactic acid production [10],growth inhibition [11],growth inhibition [12],growth inhibition [13],% reduction in viability counts [22],IC50 values (50% of the inoculum is killed) [14],IC50 values (50% of the inoculum is killed) [15],IC50 values (50% of the inoculum is killed) [17],IC50 values (50% of the inoculum is killed) [18],IC50 values (50% of the inoculum is killed) [19],IC50 values (50% of the inoculum is killed) [20],also measured
"C[C@H](NC(=O)[C@H](Cc1cnc[nH]1)NC(=O)[C@H](CO)NC(=O)[C@@H](N)CC(=O)O)C(=O)N[C@@H](CCCCN)C(=O)N[C@@H](CCCNC(=N)N)C(=O)N[C@@H](Cc1cnc[nH]1)C(=O)N[C@@H](Cc1cnc[nH]1)C(=O)NCC(=O)N[C@@H](Cc1ccc(O)cc1)C(=O)N[C@@H](CCCCN)C(=O)N[C@@H](CCCNC(=N)N)C(=O)N[C@@H](CCCCN)C(=O)N[C@@H](Cc1ccccc1)C(=O)N[C@@H](Cc1cnc[nH]1)C(=O)N[C@@H](CCC(=O)O)C(=O)N[C@@H](CCCCN)C(=O)N[C@@H](Cc1cnc[nH]1)C(=O)N[C@@H](Cc1cnc[nH]1)C(=O)N[C@@H](CO)C(=O)N[C@@H](Cc1cnc[nH]1)C(=O)N[C@@H](CCCNC(=N)N)C(=O)NCC(=O)N[C@@H](Cc1ccc(O)cc1)C(=O)O [histatin 5, reference compound]",49.3%,−49.5%,38.3%,69.5%,26.9%,−11.6%,− (“−” signifies no inhibition of lactic acid formation at >100 μg/ml peptide),− (“−” signifies no inhibition of lactic acid formation at >100 μg/ml peptide),− (“−” signifies no inhibition of lactic acid formation at >100 μg/ml peptide),− (“−” signifies no inhibition of lactic acid formation at >100 μg/ml peptide),−,−,−,,,,,,,,
C[C@@H]1[C@H](O)[C@@H](C)/C=C/C=C/C=C/C=C/C=C/C=C/C=C/[C@H](O[C@@H]2O[C@H](C)[C@@H](O)[C@H](N)[C@@H]2O)C[C@@H]2O[C@](O)(C[C@@H](O)C[C@@H](O)[C@H](O)CC[C@@H](O)C[C@@H](O)CC(=O)O[C@H]1C)C[C@H](O)[C@H]2C(=O)O [amphotericin B],,,,,,,,,,,,,,,,,,,,,"IC50 ([14]; Nakaseomyces glabratus, pH 7, read-out: IC50 values (50% of the inoculum is killed)): 2 µg/mL; IC50 ([15]; Kluyveromyces marxianus, pH 7, read-out: IC50 values (50% of the inoculum is killed)): 8 µg/mL; IC50 ([16]; Candida albicans, 32354, pH 7, read-out: IC50 values (50% of the inoculum is killed)): 2 µg/mL; IC50 ([17]; Candida albicans, 10231, pH 7, read-out: IC50 values (50% of the inoculum is killed)): 1 µg/mL; IC50 ([18]; Lodderomyces parapsilosis, pH 7, read-out: IC50 values (50% of the inoculum is killed)): 6 µg/mL; IC50 ([19]; Pichia kudriavzevii, pH 7, read-out: IC50 values (50% of the inoculum is killed)): > 70 µg/mL; IC50 ([20]; Cryptococcus neoformans, pH 7, read-out: IC50 values (50% of the inoculum is killed)): 1 µg/mL; IC50 [21]: > 70 µg/mL"
GHMASKGAIAGKIAKVALKAL-NH2 [positive control peptide],>99.9* %,>99.9%,>99.9* %,>99.9* %,>99.9* %,>99.9* %,,,,,,,,98.0%,9 µg/mL,1 µg/mL,1 µg/mL,1 µg/mL,1 µg/mL,0.5 µg/mL,"IC50 values (50% of the inoculum is killed) ([16]; 32354, pH 7): 1 µg/mL; % reduction in viability counts, total Gram-negative average [23]: 83.7%; % reduction in viability counts, total aerobic average [23]: 20.6%; % reduction in viability counts, total anaerobic average [23]: 87.2%; % reduction in viability counts, total Gram-negative average [24]: 84.0%; % reduction in viability counts, total aerobic average [24]: 58.5%; % reduction in viability counts, total anaerobic average [24]: 51.5%; % reduction in viability counts, total Gram-negative average [25]: 45.9%; % reduction in viability counts, total aerobic average [25]: 41.7%; % reduction in viability counts, total anaerobic average [25]: 68.5%; % reduction in viability counts, total Gram-negative average [26]: 97.7%; % reduction in viability counts, total aerobic average [26]: 60.1%; % reduction in viability counts, total anaerobic average [26]: 73.2%"
"SSSKEENRIIPGGI [negative control, SSSKEENRIIPGGI]",,,,,,,,,,,,,,,>67 µg/mL,>67 µg/mL,>67 µg/mL,>67 µg/mL,>67 µg/mL,>67 µg/mL,
"KRLFKKLLFSLRKY [peptide 10, KRLFKKLLFSLRKY]",,,,,,,+ (“+” designates full inhibition at 4-20 μg/ml peptide),+ (“+” designates full inhibition at 4-20 μg/ml peptide),+ (“+” designates full inhibition at 4-20 μg/ml peptide),+ (“+” designates full inhibition at 4-20 μg/ml peptide),+,+,+,,,,,,,,number of bacteria (CFU) after adding peptide [27]: below the detection limit; number of bacteria (CFU) after adding peptide [28]: below the detection limit
"KRLFKELKFSLRKY-OH [peptide 3, KRLFKELKFSLRKY]",92.9 (3.00)* %,>99.9* %,>99.9* %,99.6 (0.30)* %,>99.9* %,>99.9* %,+ (“+” designates full inhibition at 4-20 μg/ml peptide),+ (“+” designates full inhibition at 4-20 μg/ml peptide),+ (“+” designates full inhibition at 4-20 μg/ml peptide),+ (“+” designates full inhibition at 4-20 μg/ml peptide),+,+,+/−,−57.8 (77.9) %,,,,,,,
